Measurements from US20030032824A1, “Meiosis regulating compounds” (priority 1996, published 2003).

What was measured:
naked oocytes (NO) [1] = experiment: Oocyte test, inhibition of FF-MAS induced meiosis in naked oocytes (NO); assay type: cell-based, mice
Procedure: (§1) The ovaries were dissected out and the oocytes were isolated in Hx-medium (see below) under a stereo microscope by manual rupture of the follicles using a pair of 27 gauge needles. Spherical oocytes displaying an intact germinal vesicle (GV) were divided in cumulus enclosed oocytes (CEO) and naked oocytes (NO) and placed in α-minimum essential medium (α-MEM without ribonucleosides, Gibco BRL, Cat. No. 22561) supplemented with 3 mM hypoxanthine (Sigma Cat. No. H-9377), 8 mg/ml Human Serum Albumin (HSA, State Serum Institute, Denmark), 0.23 mM pyruvate (Sigma, Cat. No S-8636), 2 mM glutamine (Flow Cat. No. 16-801), 100 IU/mi penicillin and 100 μg/ml streptomycin (Flow, Cat No. 16-700). This medium was designated Hx-medium.
(§2) The cultures were performed at 37° C. and 100% humidity with 5% CO2 in air. The culture time was 22-24 hours.
(§3) By the end of the culture period, the number of oocytes with germinal vesicle (GV) or germinal vesicle breakdown (GVB) and those with polar body (PB) was counted using a stereo microscope or an inverted microscope with differential interference contrast equipment. The percentage of oocytes with GVB per total number of oocytes and the percentage of oocytes with PB per total number of oocytes was calculated in the test cultures and compared to the control culture.
(§4) Germinal vesicle (GV) oocytes were obtained from immature FSH treated female mice using the same methods as described in Example 1 (see above). The oocytes were rinsed three times in Hx-medium and oocytes of uniform size were divided into groups of CEO and NO. […] CEO and NO were cultured in Hx-medium supplemented with 0.7-7.0 μM FF-MAS in co-culture with the test compounds in different concentrations in 4-well multidishes (Nunclon, Denmark) in which each well contained 0.4 ml of Hx-medium and 35-45 oocytes. One control (i.e., 35-45 oocytes cultured in Hx-medium containing FF-MAS with no addition of test compound) was always run simultaneously with the test cultures, which were supplemented with different concentrations of the compounds to be tested.

[2] = test system: cumulus enclosed oocytes (CEO); experiment: Oocyte test, inhibition of FF-MAS induced meiosis in cumulus enclosed oocytes (CEO); assay type: cell-based, mice
Procedure: as §1, §2, §3, §4

CEO and NO = CEO and NO in vitro, previously shown; cited from earlier work
[3] = test system: cumulus enclosed oocytes (CEO); experiment: Oocyte test, activation of meiosis in cumulus enclosed oocytes (CEO) cultured in Hx-medium; assay type: cell-based, mice
Procedure: (§5) Oocytes were obtained from immature female mice (C57BI/6J×DBA/2J F1-hybrids, Bomholtgaard, Denmark) weighing 13-16 grams, that were kept under controlled lighting and temperature. The mice received an intra-peritoneal injection of 0.2 ml gonadotropins (Gonal-F, Serono, Solna, Sweden, containing 20 IU FSH, alternatively, Puregon, Organon, Swords, Ireland containing 20 IU FSH) and 48 hours later the animals were killed by cervical dislocation.
as §1
(§6) The oocytes were rinsed three times in Hx-medium and oocytes of uniform size were divided into groups of CEO and NO. CEO and NO were cultured in 4-well multidishes (Nunclon, Denmark) in which each well contained 0.4 ml of Hx-medium and 35-45 oocytes. […]
as §3

naked oocytes (NO) [4] = experiment: Oocyte test, activation of meiosis in naked oocytes (NO) cultured in Hx-medium; assay type: cell-based, mice
Procedure: as §5, §1, §6, §3

[5] = FF-MAS 0.7 μM + 22R 13 μM (ratio 1:19)
[6] = FF-MAS 0.7 μM + 22R 25 μM (ratio 1:36)
[7] = FF-MAS 1.2 μM + 22R 25 μM (ratio 1:20)
[8] = FF-MAS 7 μM + 22R 12.5 μM (ratio 1:2)
[9] = FF-MAS 0.7 μM alone (control, no 22R)
[10] = FF-MAS 1.2 μM alone (control, no 22R)
[11] = FF-MAS 7 μM alone (control, no 22R)
[12] = CEO, test concentration 7.0 μM, culture 22-24 hours
[13] = NO, test concentration 7.0 μM, culture 22-24 hours

CC(C)CC[C@@H](O)[C@@H](C)[C@H]1CC[C@H]2[C@@H]3CC=C4C[C@@H](O)CC[C@]4(C)[C@H]3CC[C@]12C [Example 22R, cholest-5-en-3β,(22R)-diol]
% GVB (naked oocytes (NO) [1]; [5]): 16.9%
% PB (naked oocytes (NO) [1]; [5]): 0%
% GVB (naked oocytes (NO) [1]; [6]): 2.9%
% PB (naked oocytes (NO) [1]; [6]): 0%
% GVB (naked oocytes (NO) [1]; [7]): 4.6%
% PB (naked oocytes (NO) [1]; [7]): 0%
antagonism of FF-MAS induced resumption of meiosis (naked oocytes (NO) [1]; co-culture with FF-MAS): antagonises the FF-MAS induced resumption of meiosis in a dose-related manner
% GVB [2, 6]: 6.9%
% PB [2, 6]: 3.4%
% GVB [2, 8]: 21%
% PB [2, 8]: 3.5%
antagonism of FF-MAS induced resumption of meiosis ([2]; co-culture with FF-MAS): antagonises the FF-MAS induced resumption of meiosis in a dose-related manner

CC(C)=CCC[C@@H](C)[C@H]1CC=C2C3=C(CC[C@@]21C)[C@@]1(C)CC[C@H](O)C(C)(C)C1CC3 (stereo partly drawn) [FF-MAS, 4,4-Dimethylcholest-8,14,24-trien-3β-ol, reference compound]
induction of meiosis (CEO and NO): induce meiosis in CEO and NO in vitro
% GVB (naked oocytes (NO) [1]; [9]): 33.0%
% PB (naked oocytes (NO) [1]; [9]): 7.8%
% GVB (naked oocytes (NO) [1]; [10]): 19.5%
% PB (naked oocytes (NO) [1]; [10]): 9.5%
% GVB [2, 9]: 21.7%
% PB [2, 9]: 10.8%
% GVB [2, 11]: 39.0%
% PB [2, 11]: 18.9%

CC(C)CCC[C@@H](C)[C@H]1CC[C@H]2[C@@H]3CC=C4[C@@H](O)[C@@H](O)CC[C@]4(C)[C@H]3CC[C@]12C [cholest-5-en-3β,4β-diol]
% GVB [3, 12]: 44.4%
% PB [3, 12]: 25.9%
induction of meiosis ([3]; cumulus enclosed oocyte cultured in vitro): induces meiosis
% GVB (naked oocytes (NO) [4]; [13]): 50.2%
% PB (naked oocytes (NO) [4]; [13]): 17.2%
induction of meiosis (naked oocytes (NO) [4]; naked oocyte cultured in vitro): induces meiosis
